# pEC50: −log10 of the molar value.
# Tests used:
# Assay type in all cases: cell-based, medaka (Oryzias latipes)
# [1] = test system: pro-opiomelanocortin (pomc) gene expression; assay: Ex vivo pituitary organ culture, real-time PCR of pomc;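 for pomc expression (Fig. 8, pomc): relative expression with female control samples set to 1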
# Excerpt: (§1) Fig. 8 Pacap and Vip have pleiotropic effects on the expression of anterior pituitary hormones. The effects of Pacap and Vip on gene expression levels of follicle-stimulating hormone β subunit (fshb), luteinizing hormone β subunit (lhb), thyroid-stimulating hormone β subunit (tshb), growth hormone (gh), somatolactin (sl), prolactin (prl), and pro-opiomelanocortin (pomc) were investigated by using male and female pituitaries cultured ex vivo (n = 6 per group, except male pituitary supplemented with Vip, where n = 5). Data were expressed as means with error bars representing standard error of the mean. Statistical differences were assessed by Dunnett’s post-hoc test. *p < 0.05; **p < 0.01; ***p < 0.001.
# (§2) The pituitaries from five male or female fish were pooled for each sample and cultured ex vivo in Leibovitz’s L-15 medium supplemented with 5% charcoal-stripped fetal bovine serum as described elsewhere. The medium was further supplemented with 10^−5 M medaka Pacap or Vip, or vehicle alone. After 24 h of culture at 25 °C, the pituitaries were processed for total RNA extraction and cDNA synthesis by using the RNeasy Plus Micro Kit (Qiagen) and SuperScript VILO cDNA Synthesis Kit (Thermo Fisher Scientific), respectively. Real-time PCR was performed on the LightCycler 480 System II using LightCycler 480 SYBR Green I Master (Roche Diagnostics). The cycle conditions were: 95 °C for 5 min followed by 45 cycles of 95 °C for 10 sec, 60 °C for 10 sec and 72 °C for 10 sec. Melting curve analysis was performed as described above. Data were normalized to the geometric mean of three reference genes, actb, gapdh (encoding glyceraldehyde-3-phosphate dehydrogenase; National BioResource Project (NBRP) Medaka clone ID olbrno9_f15) and rpl13 (encoding ribosomal protein L13; NBRP Medaka clone ID olovano51_b24), according to Vandesompele et al.[63]. The primers used for real-time PCR are listed in Supplementary Table 3.
# [2] = test system: prolactin (prl) gene expression; assay: Ex vivo pituitary organ culture, real-time PCR of prl; conditions: for prl expression (in words): 10^-5 M, 24 h, 25 °C, vs vehicle
# Excerpt: as §1, §2
# medaka Vipr2b = assay: Receptor activation assay, cAMP-responsive luciferase in COS-7 cells
# Excerpt: (§3) The number at each node indicates bootstrap values for 1000 replicates. Scale bar represents 0.1 substitutions per site. SCTR, secretin receptor. For species names and GenBank accession numbers, see Supplementary Table 2. b Ability of Pacap and Vip to activate medaka Pacap/Vip receptors. […] Representative sections of pituitary at different levels along the anterior–posterior axis are shown. Arrowheads indicate expression signals. […] Scale bars represent 50 μm. f Identity of the pituitary cells expressing each Pacap/Vip receptor. The spatial expression pattern of each receptor was compared with that of each pituitary hormone gene in the RPD and PI. Left and middle panels show images of the expression of the indicated receptor (adcyap1r1a, adcyap1r1b, or vipr2b; green) and pituitary hormone gene (sl, prl, or pomc; magenta) in the same sections; right panels show the merged images with nuclear counterstaining (blue). […] Scale bars represent 20 μm. Quantitative data were expressed as means with error bars representing standard error of the mean. […] PI pars intermedia, PPD proximal pars distalis, RPD rostral pars distalis.
# (§4) Receptor activation assay was performed essentially as described previously. Medaka Pacap (38 amino acids) and Vip (28 amino acids) polypeptides with amidated C termini were synthesized by Scrum (Tokyo, Japan). cDNA fragments encoding the full-length Adcyap1r1a (GenBank accession number XM_023965124), Adcyap1r1b (XM_011474272), Vipr1a (XM_023950180), Vipr1b (XM_004079106), Vipr2a (XM_023950048) and Vipr2b (XM_023965399) were PCR-amplified and subcloned into the expression vector pcDNA3.1/V5-His-TOPO (Thermo Fisher Scientific). Each of the resulting receptor expression constructs was transiently transfected into COS-7 cells (obtained from and authenticated by Riken BRC Cell Bank), together with the cAMP-responsive luciferase reporter vector pGL4.29 (Promega) and the internal control vector pGL4.74 (Promega) at a ratio of 11:18:1 for 6 h by using Lipofectamine LTX and Plus reagent (Thermo Fisher Scientific). Forty-two hours after transfection, cells were stimulated with Pacap or Vip at doses of 0, 10^−11, 10^−10, 10^−9, 10^−8, 10^−7, 10^−6 and 10^−5 M for 6 h. After cell lysis, luciferase activity was measured by using the Dual-Luciferase Reporter Assay System (Promega). Each assay was performed in triplicate and repeated three times independently.
# medaka Adcyap1r1b = assay: as above; conditions: COS-7 cells
# Excerpt: as §3, §4
# medaka Vipr1b = assay: as above; conditions: COS-7 cells
# Excerpt: as §3, §4
# medaka Vipr1a = assay: as above
# Excerpt: as §3, §4
# medaka Vipr2a = assay: as above
# Excerpt: as §3, §4
# medaka Adcyap1r1a = assay: as above; conditions: COS-7 cells
# Excerpt: as §3, §4
# [3] = test system: growth hormone (gh) gene expression; assay: Ex vivo pituitary organ culture, real-time PCR of gh; conditions: for gh expression (in words): 10^-5 M, 24 h, 25 °C, vs vehicle
# Excerpt: as §1, §2
# [4] = COS-7 cells, 6 h stimulation, 10^-11 to 10^-5 M, luciferase, triplicate, repeated three times, read-out: half-maximal effective concentration (EC50)
# [5] = 6 h stimulation, 10^-11 to 10^-5 M, luciferase, triplicate, repeated three times, read-out: half-maximal effective concentration (EC50)
substance,measurement,setting,value
vasoactive intestinal peptide [Vip],"pomc expression (Fig. 8, pomc)","[1]; female, replicate 1",1.053
same,"pomc expression (Fig. 8, pomc)","[1]; female, replicate 2",1.048
same,"pomc expression (Fig. 8, pomc)","[1]; female, replicate 3",0.787
same,"pomc expression (Fig. 8, pomc)","[1]; female, replicate 4",1.201
same,"pomc expression (Fig. 8, pomc)","[1]; female, replicate 5",1.189
same,"pomc expression (Fig. 8, pomc)","[1]; female, replicate 6",1.854
same,pomc expression (in words),"[1]; male pituitaries, 10^-5 M, 24 h, 25 °C, vs vehicle",no significant effect
same,"pomc expression (Fig. 8, pomc)","[1]; male, replicate 1",3.570
same,"pomc expression (Fig. 8, pomc)","[1]; male, replicate 2",3.612
same,"pomc expression (Fig. 8, pomc)","[1]; male, replicate 3",5.174
same,"pomc expression (Fig. 8, pomc)","[1]; male, replicate 5",6.158
same,"pomc expression (Fig. 8, pomc)","[1]; male, replicate 6",3.870
same,prl expression (in words),[2]; female pituitaries,substantially increased
same,"prl expression (Fig. 8, prl)","[2]; female, replicate 1",4.014
same,"prl expression (Fig. 8, prl)","[2]; female, replicate 2",5.400
same,"prl expression (Fig. 8, prl)","[2]; female, replicate 3",2.330
same,"prl expression (Fig. 8, prl)","[2]; female, replicate 4",5.283
same,"prl expression (Fig. 8, prl)","[2]; female, replicate 5",3.539
same,"prl expression (Fig. 8, prl)","[2]; female, replicate 6",6.475
same,prl expression (in words),[2]; male pituitaries,substantially increased
same,"prl expression (Fig. 8, prl)","[2]; male, replicate 1",3.340
same,"prl expression (Fig. 8, prl)","[2]; male, replicate 2",4.481
same,"prl expression (Fig. 8, prl)","[2]; male, replicate 3",3.982
same,"prl expression (Fig. 8, prl)","[2]; male, replicate 5",3.314
same,"prl expression (Fig. 8, prl)","[2]; male, replicate 6",4.421
same,potency of Pacap and Vip compared (in words),medaka Vipr2b,fairly similar potencies
same,"receptor activation, increase in intracellular cAMP levels (in words)","medaka Vipr2b; COS-7 cells, 6 h",dose-dependently activated all six receptors
same,pEC50,medaka Vipr2b; [4],5.37
same,"receptor activation, increase in intracellular cAMP levels (in words)",medaka Adcyap1r1b; 6 h,dose-dependently activated all six receptors
same,pEC50,medaka Adcyap1r1b; [5],7.75
same,"receptor activation, increase in intracellular cAMP levels (in words)",medaka Vipr1b; 6 h,dose-dependently activated all six receptors
same,pEC50,medaka Vipr1b; [5],9.14
same,potency of Pacap and Vip compared (in words),medaka Vipr1a,fairly similar potencies
same,"receptor activation, increase in intracellular cAMP levels (in words)","medaka Vipr1a; COS-7 cells, 6 h",dose-dependently activated all six receptors
same,pEC50,medaka Vipr1a; [4],9.37
same,potency of Pacap and Vip compared (in words),medaka Vipr2a,fairly similar potencies
same,"receptor activation, increase in intracellular cAMP levels (in words)","medaka Vipr2a; COS-7 cells, 6 h",dose-dependently activated all six receptors
same,pEC50,medaka Vipr2a; [4],5.61
same,"receptor activation, increase in intracellular cAMP levels (in words)",medaka Adcyap1r1a; 6 h,dose-dependently activated all six receptors
same,pEC50,medaka Adcyap1r1a; [5],7.49
same,gh expression (in words),[3]; female pituitaries,no significant effects
same,"gh expression (Fig. 8, gh)","[3]; female, replicate 1",0.831
same,"gh expression (Fig. 8, gh)","[3]; female, replicate 2",0.891
same,"gh expression (Fig. 8, gh)","[3]; female, replicate 3",0.819
same,"gh expression (Fig. 8, gh)","[3]; female, replicate 4",0.622
same,"gh expression (Fig. 8, gh)","[3]; female, replicate 5",0.476
same,"gh expression (Fig. 8, gh)","[3]; female, replicate 6",1.314
same,gh expression (in words),[3]; male pituitaries,no significant effects
same,"gh expression (Fig. 8, gh)","[3]; male, replicate 1",0.673
same,"gh expression (Fig. 8, gh)","[3]; male, replicate 2",0.774
same,"gh expression (Fig. 8, gh)","[3]; male, replicate 3",0.572
same,"gh expression (Fig. 8, gh)","[3]; male, replicate 5",0.496
same,"gh expression (Fig. 8, gh)","[3]; male, replicate 6",0.481
